Experimental data reported in patent US9428771B2, “Method for the oxidation of organic compounds” (STUDIENGE[…] MBH, priority 2010, dated 2016).
Read-outs that look alike come from different tables or passages of the source.

Columns and labels:
P450 BM3 [1] = target: T1, P450 BM3 (Priestia megaterium, UniProt P14779); assay: P450 BM3 catalysed oxidation of methane to methanol in the presence of an additive; assay type: biochemical, Bacillus megaterium; parameters: polyhistidine (His6) tag from vector pETM11 (N); made in house; host or cells: E. coli BL21 (DE3) GOLD; details: 1 mM additive, 25° C; for Total product formed (methanol): 7% methane, 8% O2, 85% N2, 10 bar; for TON: methane, 10 bar
Protocol: (§1) The hydroxylation of gaseous alkanes was carried out in a self-constructed low-pressure reactor. […] Subsequently the reaction vessels were linked to a gas bottle via a multichannel gas feed. The following gas mixtures were used to flush the apparatus and to apply a pressure of 10 bar to the reaction solution: a) 7% methane, 8% oxygen, 85% nitrogen, b) 7% propane, 8% oxygen, 85% nitrogen or c) 10% butane, 8% oxygen, 82% nitrogen. The reaction mixture was stirred at 100 rpm with a crosshead-shaped magnetic stirrer (VWR). At the end of the reaction the pressure was carefully released from the reaction vessels, a 1 ml aliquot was centrifuged for 10 min at 13 000 rpm and analyzed by HPLC. […] Each experiment comprised at least one positive control for the enzyme activity, in which dodecanoic acid was added as additive (1 mM final concentration, from a 100 mM stock in DMSO), while the enzyme was exposed to 10 bar of the gaseous alkane mixture. The reaction of dodecanoic acid was analyzed using decanoic acid (1 mM final concentration, from a 100 mM stock in DMSO) as standard. The samples were extracted for the GC analysis with 0.5 volume of MTBE and were analyzed by GC.
30 min isotherm, 60-240° C. at 16° C./min, 240° C. for 5 min isotherm.
The quantification of propanol and butanol was carried out using the RID-10A detector, while the quantification of methanol was carried out using the RID-10A or, preferably, the ED 50 detector. The ED 50 detector was operated in integrated, amperometric detection mode with an Ag reference electrode in the range of 300 nC. The detection was carried out in waveform as follows: […]

P450 BM3 [2] = target: T1, P450 BM3; assay: P450 BM3 catalysed oxidation of butane and propane in the presence of additives; assay type: biochemical, Bacillus megaterium; parameters: polyhistidine (His6) tag from vector pETM11 (N); made in house; host or cells: E. coli BL21 (DE3) GOLD; details: 1 mM additive, 25° C; for % ee: Butane oxidation product; for TON: 10 bar
Protocol: as §1
The quantification of propanol and butanol was carried out using the RID-10A detector, while the quantification of methanol was carried out using the RID-10A or, preferably, the ED 50 detector. The ED 50 detector was operated in integrated, amperometric detection mode with an Ag reference electrode in the range of 300 nC. The detection was carried out in waveform as follows:
The P450 BM3 catalysed oxidation of butane and propane was carried out in the presence or absence of additives 1 under standard conditions as follows: 2.5 ml reaction volume, 5 ml gas volume, 1% DMF, 100 mM KPi, pH 8.0, 10 bar pressure (10% n-butane, 8% O2, 82% N2; 7% propane, 8% O2, 85% N2), propane oxidation: 14.5 h, butane oxidation: 17.5 h., 25° C.

P450 BM3 [3] = target: T1, P450 BM3; details: 1 mM additive, 20° C; for TON: mol of product/mol of enzyme; for Regioselectivity: 1 hour
Protocol: For hydroxylating alkanes, for example C6 and C8 alkanes, the substrate was added to the reaction solution from a 160 mM stock in EtOH and was adjusted to a final concentration of 3.2 mM. The solution further comprised 0.1 M glucose (Riedel de Haen), 1 mM NADP^+ (Codexis, Jülich, Germany), 1 U/ml GDH (#001, Codexis, Jülich, Germany), 1 mM additive (unless otherwise stated), BM3-WT enzyme and 100 mM KPi, pH 8.0 with a total volume of 20 ml. The reactions were shaken for 1 hour at 20° C. in a 50 ml Falcon reaction tube in a bacterial incubator at 130 rpm. After one hour, three aliquots were removed, each of 1 ml volume, and acidified with 0.1 ml of 10% HCl. Subsequently 1 mM 1-pentanol was added as internal standard. The mixture was extracted with half a volume of MTBE and analyzed by gas chromatography.
Hydroxylation products were analyzed by GC using the following instruments and under the following conditions: HP6890+7683HP (Hewlett Packard, USA); column: 15 m Stabilwax phase, internal diameter 0.25 mm, film thickness 0.5 μm, (J&W, Germany); pressure: 0.8 bar H2; split rate 60; injector: 220° C.; temperature gradient: 40° C. 4 min isotherm, 40-60° C. at 4° C./min, 60° C.-250° C. at 15° C./min. FID detector. The product peaks were quantified as a ratio to the 1 mM 1-pentanol peak using the following, previously determined, correction factors: 2-octanol: 2.36; 3-,4-octanol: 2.23; 2-,3-hexanol:1.218; 3-Me-3-PeOH,3-Me-2-PeOH: 1.49; 3,3-Di-Me-2-BuOH: 1.43; 2,3-Di-Me-BuOH: 1.317.
Reaction conditions: 3.2 mM alkane; 1% v/v DMF; 2% v/v ethanol; 100 mM glucose, 1 mM NADP^+, 1 U/ml GDH, 1 mM additive, 100 mM KPi, pH 8.0, total volume 20 ml; 1 hour; 20° C. The P450-BM3 concentration depended on the compound used 2: 1 μM, 3: 2.9 μM, 4: 2.9 μM, 5: 1.1 μM, 6: 2.7 μM)
The turnover numbers (TON) were calculated (mol of product/mol of enzyme) for the enzyme at the end of the reaction.

[4] = Butane (10% n-butane, 8% O2, 82% N2, 10 bar), 2.3 μM enzyme, 17.5 h
[5] = alkane 2 (3.2 mM), 1 μM P450-BM3, 1 hour
[6] = alkane 4 (3.2 mM), 2.9 μM P450-BM3, 1 hour
[7] = alkane 5 (3.2 mM), 1.1 μM P450-BM3, 1 hour
[8] = Propane (7% propane, 8% O2, 85% N2, 10 bar), 2.9 μM enzyme, 14.5 h
[9] = alkane 3 (3.2 mM), 2.9 μM P450-BM3, 1 hour
[10] = alkane 6 (3.2 mM), 2.7 μM P450-BM3, 1 hour

T1 sequence (P14779 whole entry): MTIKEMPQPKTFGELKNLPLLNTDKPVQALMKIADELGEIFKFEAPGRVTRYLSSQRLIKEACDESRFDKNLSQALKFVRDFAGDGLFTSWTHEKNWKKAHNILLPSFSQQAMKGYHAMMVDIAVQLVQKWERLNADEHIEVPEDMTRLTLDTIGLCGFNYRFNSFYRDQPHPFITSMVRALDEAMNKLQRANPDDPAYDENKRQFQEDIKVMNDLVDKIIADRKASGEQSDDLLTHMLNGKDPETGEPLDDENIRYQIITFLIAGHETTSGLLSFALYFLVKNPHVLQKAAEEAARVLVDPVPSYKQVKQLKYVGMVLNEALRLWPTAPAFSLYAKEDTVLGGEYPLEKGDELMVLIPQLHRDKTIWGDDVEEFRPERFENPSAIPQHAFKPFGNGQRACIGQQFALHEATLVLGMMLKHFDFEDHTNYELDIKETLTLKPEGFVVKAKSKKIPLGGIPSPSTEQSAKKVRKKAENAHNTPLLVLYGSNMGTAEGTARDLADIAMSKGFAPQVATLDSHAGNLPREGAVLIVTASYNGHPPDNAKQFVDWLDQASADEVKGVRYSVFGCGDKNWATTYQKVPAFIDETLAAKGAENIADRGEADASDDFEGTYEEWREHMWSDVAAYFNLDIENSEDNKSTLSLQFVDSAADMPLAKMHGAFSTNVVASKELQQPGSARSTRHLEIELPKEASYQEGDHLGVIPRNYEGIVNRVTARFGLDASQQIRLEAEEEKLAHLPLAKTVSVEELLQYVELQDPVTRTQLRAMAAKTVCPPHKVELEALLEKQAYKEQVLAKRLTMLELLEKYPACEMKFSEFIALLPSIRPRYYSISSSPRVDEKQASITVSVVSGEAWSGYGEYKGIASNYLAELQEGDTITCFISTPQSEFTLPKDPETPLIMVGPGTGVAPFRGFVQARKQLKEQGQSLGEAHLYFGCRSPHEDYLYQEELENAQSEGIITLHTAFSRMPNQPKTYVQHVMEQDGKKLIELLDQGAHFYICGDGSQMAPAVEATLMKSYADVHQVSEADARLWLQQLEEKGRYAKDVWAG

Compound	Total product formed (P450 BM3 [2]; [4])	% ee (P450 BM3 [2]; 17.5 h)	TON (P450 BM3 [2]; Butane, 2.3 μM enzyme, 17.5 h)	Total product formed (methanol) (P450 BM3 [1]; 1.3 μM enzyme, 21 h)	TON (P450 BM3 [1]; 1.3 μM enzyme, 21 h)	other results
OCCCC(F)(F)C(F)(F)C(F)(F)C(F)(F)C(F)(F)C(F)(F)C(F)(F)C(F)(F)F [1H, 1H, 2H, 2H, 3H, 3H-Perfluoroundecano, 1H, 1H, 1H, 2H, 2H, 3H, 3H-perfluoroundecanol]	–	–	–	–	–	Total product formed (methanol) (P450 BM3 [1]; 19 h): 0.84 mM; TON (P450 BM3 [1]; 19 h): 630
OCCC(F)(F)C(F)(F)C(F)(F)C(F)(F)C(F)(F)C(F)(F)F [1H, 1H, 2H, 2H-perfluorooctan-1-ol]	–	–	–	–	–	Total product formed (methanol) (P450 BM3 [1]; 19 h): 2.53 mM; TON (P450 BM3 [1]; 19 h): 1889
OCCCCCCC(F)(F)C(F)(F)F [6(perfluoroethyl)hexanol, 6-(perfluoroethyl)hexanol]	–	–	–	–	–	Total product formed (methanol) (P450 BM3 [1]; 19 h): 2.69 mM; TON (P450 BM3 [1]; 19 h): 2006
O=C(O)C(F)(F)F [Additive 1a]	1.1 mM	32%	469	–	–	–
O=C(O)C(F)(F)C(F)(F)C(F)(F)C(F)(F)C(F)(F)C(F)(F)F [Additive 1b, perfluoroheptanoic acid]	8.4 mM	22%	3632	–	–	–
O=C(O)C(F)(F)C(F)(F)C(F)(F)C(F)(F)C(F)(F)C(F)(F)C(F)(F)C(F)(F)F [Additive 1c, perfluorononanoic acid]	2.0 mM	23%	879	2.75 mM	2053	Total product formed (P450 BM3 [3]; [5]): 1.16 mM; TON (P450 BM3 [3]; [5]): 1184; Total product formed (P450 BM3 [3]; [6]): 1.36 mM; TON (P450 BM3 [3]; [6]): 476; Total product formed (P450 BM3 [3]; [7]): 0.96 mM; TON (P450 BM3 [3]; [7]): 892; Regioselectivity (P450 BM3 [3]; alkane 5 (3.2 mM), cell reads: only 2-Hydroxy-3,3-dimethylbutane): only 2-Hydroxy-3,3-
O=C(O)C(F)(F)C(F)(F)C(F)(F)C(F)(F)C(F)(F)C(F)(F)C(F)(F)C(F)(F)C(F)(F)F [Additive 1d, perfluorodecanoic acid]	3.9 mM	20%	1699	3.31 mM	2472	–
O=C(O)C(F)(F)C(F)(F)C(F)(F)C(F)(F)C(F)(F)C(F)(F)C(F)(F)C(F)(F)C(F)(F)C(F)(F)F [Additive 1e, perfluoroundecanoic acid]	5.8 mM	19%	2519	1.81 mM	1353	Total product formed (P450 BM3 [2]; [8]): 3.0 mM; TON (P450 BM3 [2]; Propane, 2.9 μM enzyme, 14.5 h): 1021; Total product formed (P450 BM3 [3]; [9]): 1.50 mM; TON (P450 BM3 [3]; [9]): 525; Total product formed (P450 BM3 [3]; [10]): 0.19 mM; TON (P450 BM3 [3]; [10]): 3241; Regioselectivity (P450 BM3 [3]; alkane 6 (3.2 mM), cell reads: only 2-Hydroxy-2,3-dimethylbutane): only 2-Hydroxy-2,3-
O=C(O)C(F)(F)C(F)(F)C(F)(F)C(F)(F)C(F)(F)C(F)(F)C(F)(F)C(F)(F)C(F)(F)C(F)(F)C(F)(F)F [Additive 1f, perfluorododecanoic acid]	–	–	–	1.25 mM	933	Total product formed (P450 BM3 [2]; [8]): 0.67 mM; TON (P450 BM3 [2]; Propane, 2.9 μM enzyme, 14.5 h): 227
O=C(O)C(F)(F)C(F)(F)C(F)(F)C(F)(F)C(F)(F)C(F)(F)C(F)(F)C(F)(F)C(F)(F)C(F)(F)C(F)(F)C(F)(F)F [Additive 1g, perfluorotridecanoic acid]	–	–	–	0.75 mM	560	–
O=C(O)C(F)(F)C(F)(F)C(F)(F)C(F)(F)C(F)(F)C(F)(F)C(F)(F)C(F)(F)C(F)(F)C(F)(F)C(F)(F)C(F)(F)C(F)(F)F [Additive 1h, perfluorotetradecanoic acid]	–	–	–	0.28 mM	210	Total product formed (P450 BM3 [2]; [8]): 0.50 mM; TON (P450 BM3 [2]; Propane, 2.9 μM enzyme, 14.5 h): 170
